This is an account of results in patent US11584714B2 (priority 2018, dated 2023).

The target in one test is MASP-2 (CCP1-CCP2-SP) (Homo sapiens (Human), UniProt O00187). In words: biochemical. It is filed as biochemical. The following applies: for MASP-2 vs. thrombin selectivity: MASP-2 inhibition versus thrombin; for Ki: read-out: MASP-2 Ki.
The target of another test is human α-thrombin (Homo sapiens (Human), UniProt P00734). In words: Enzymatic assay for thrombin (Boc-VPR-AMC substrate). The test is classed as biochemical. The following applies: read-out: Thrombin Ki.

Where a name gives a salt, the structure may show the parent alone. Read-outs that look alike come from different tables or passages of the source.

MASP-2 (CCP1-CCP2-SP), sequence (O00187 445-686): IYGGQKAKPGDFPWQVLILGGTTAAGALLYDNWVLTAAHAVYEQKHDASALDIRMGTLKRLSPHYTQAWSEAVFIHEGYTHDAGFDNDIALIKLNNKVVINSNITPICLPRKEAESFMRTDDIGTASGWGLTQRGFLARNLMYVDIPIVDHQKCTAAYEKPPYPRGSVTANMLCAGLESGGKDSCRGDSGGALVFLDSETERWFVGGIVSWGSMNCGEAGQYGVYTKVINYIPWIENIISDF

Turning to `N=C(N)c1ccc(CNC(=O)[C@@H]2CCN2C(=O)[C@H](O)C2CCCCC2)cc1` [compound 1020], at MASP-2 (CCP1-CCP2-SP), the “MASP-2 vs. thrombin selectivity” value was “−− (less than 1.0-fold)” and the inhibition constant (Ki) is < 500 nM. The Ki at human α-thrombin was < 500 nM.
Consider `N=C(N)c1ccc(CNC(=O)[C@@H]2CCCN2C(=O)[C@H](N)C2CCCCC2)cc1` [compound 1027], for which, on MASP-2 (CCP1-CCP2-SP), the “MASP-2 vs. thrombin selectivity” value is “−− (less than 1.0-fold)” and the inhibition constant Ki is < 500 nM. For the same molecule, the Ki at human α-thrombin was < 500 nM.
`N=C(N)c1ccc(CNC(=O)[C@@H]2CCN2C(=O)[C@H](N)CCc2ccccc2)cc1` [compound 1038]: the “MASP-2 vs. thrombin selectivity” value on MASP-2 (CCP1-CCP2-SP) is listed as “* (1.0 to 5.0-fold)”. Also, the Ki on MASP-2 (CCP1-CCP2-SP) and at human α-thrombin was < 500 nM each time.
Take `C[C@H](NC(=O)[C@H](N)CCc1ccccc1F)C(=O)NCc1ccc(C(=N)N)cc1` [compound 1049]: on MASP-2 (CCP1-CCP2-SP), the “MASP-2 vs. thrombin selectivity” value is “** (5.0 to 25-fold)” and the Ki was < 500 nM. At human α-thrombin, the Ki was < 500 nM.
As for `N=C(N)c1ccc(CNC(=O)[C@@H]2CCN2C(=O)[C@H](N)C2Cc3ccccc3C2)cc1` [compound 1058, (S)-1-((R)-2-Amino-2-(2,3-dihydro-1H-inden-2-yl)acetyl)-N-(4-carbamimidoylbenzyl)azetidine-2-carboxamide], at MASP-2 (CCP1-CCP2-SP), the “MASP-2 vs. thrombin selectivity” value is reported as “−− (less than 1.0-fold)” and the inhibitory constant (Ki) is < 500 nM. On human α-thrombin, the Ki is < 500 nM.
For the molecule `COc1ccc(CC[C@@H](N)C(=O)N[C@@H](C)C(=O)NCc2ccc(C(=N)N)cc2)cc1` [compound 1076], on MASP-2 (CCP1-CCP2-SP), the “MASP-2 vs. thrombin selectivity” value is “** (5.0 to 25-fold)” and the Ki was < 500 nM. For the same molecule, the Ki on human α-thrombin was < 500 nM.
For the molecule `C[C@H](NC(=O)[C@H](N)CCc1ccccc1Cl)C(=O)NCc1ccc(C(=N)N)cc1` [compound 1082], on MASP-2 (CCP1-CCP2-SP), the “MASP-2 vs. thrombin selectivity” value was “* (1.0 to 5.0-fold)” and the Ki is < 500 nM. The inhibition constant (Ki) on human α-thrombin was < 500 nM.
In the case of `C[C@H](NC(=O)[C@H](N)CCc1ccc(F)cc1F)C(=O)NCc1ccc(C(=N)N)cc1` [compound 1084], at MASP-2 (CCP1-CCP2-SP), the “MASP-2 vs. thrombin selectivity” value is reported as “** (5.0 to 25-fold)” and the Ki is < 500 nM. For the same molecule, the Ki on human α-thrombin is < 500 nM.
As for `C[C@H](NC(=O)[C@H](N)CCc1ccc(F)c(F)c1)C(=O)NCc1ccc(C(=N)N)cc1` [compound 1085], on MASP-2 (CCP1-CCP2-SP), the “MASP-2 vs. thrombin selectivity” value is reported as “** (5.0 to 25-fold)”. Further, the Ki at MASP-2 (CCP1-CCP2-SP) and at human α-thrombin was < 500 nM each time.
As to `C[C@H](NC(=O)[C@H](N)CCc1cc(F)ccc1F)C(=O)NCc1ccc(C(=N)N)cc1` [compound 1086], on MASP-2 (CCP1-CCP2-SP), the “MASP-2 vs. thrombin selectivity” value is “** (5.0 to 25-fold)” and the inhibitory constant (Ki) is < 500 nM. Besides, the inhibition constant (Ki) at human α-thrombin is < 500 nM.
`C[C@H](NC(=O)[C@H](N)CCc1cc(F)cc(F)c1)C(=O)NCc1ccc(C(=N)N)cc1` [compound 1087]: the “MASP-2 vs. thrombin selectivity” value at MASP-2 (CCP1-CCP2-SP) is on record as “** (5.0 to 25-fold)”. Also, the inhibition constant Ki at MASP-2 (CCP1-CCP2-SP) and on human α-thrombin was < 500 nM each time.
Consider `C[C@H](NC(=O)[C@H](N)Cc1ccc2ccccc2c1)C(=O)NCc1ccc(C(=N)N)cc1` [compound 1093], for which, at MASP-2 (CCP1-CCP2-SP), the “MASP-2 vs. thrombin selectivity” value is reported as “−− (less than 1.0-fold)” and the Ki was < 500 nM. In addition, on human α-thrombin, the Ki is < 500 nM.
As for `C[C@@H](C(=O)NCc1ccc(C(=N)N)cc1)N(C)C(=O)[C@H](NCC(=O)O)C1CCCCC1` [compound 1107], on MASP-2 (CCP1-CCP2-SP), the “MASP-2 vs. thrombin selectivity” value is listed as “−− (less than 1.0-fold)”. Also, the inhibition constant (Ki) on MASP-2 (CCP1-CCP2-SP) and on human α-thrombin was < 500 nM each time.
Turning to `C[C@H](NC(=O)[C@@H](CCc1ccccc1)NCC(=O)O)C(=O)NCc1ccc(C(=N)N)cc1` [compound 1110], at MASP-2 (CCP1-CCP2-SP), the “MASP-2 vs. thrombin selectivity” value was “* (1.0 to 5.0-fold)” and the inhibition constant Ki was < 500 nM. The inhibition constant Ki on human α-thrombin is < 500 nM.
Regarding `COc1ccc(CC[C@@H](N)C(=O)N[C@@H](C)C(=O)NCc2ccc(C(=N)N)cc2)c(OC)c1` [compound 1111], on MASP-2 (CCP1-CCP2-SP), the “MASP-2 vs. thrombin selectivity” value is listed as “* (1.0 to 5.0-fold)” and the inhibition constant (Ki) is < 500 nM. Further, the Ki on human α-thrombin is < 500 nM.
`COc1cc(CC[C@@H](N)C(=O)N[C@@H](C)C(=O)NCc2ccc(C(=N)N)cc2)cc(OC)c1` [compound 1112]: the “MASP-2 vs. thrombin selectivity” value at MASP-2 (CCP1-CCP2-SP) is listed as “** (5.0 to 25-fold)”. Also, the inhibitory constant (Ki) on MASP-2 (CCP1-CCP2-SP) and at human α-thrombin was < 500 nM throughout.
Consider `C[C@H](NC(=O)[C@H](N)CCc1cccc(C(F)(F)F)c1)C(=O)NCc1ccc(C(=N)N)cc1` [compound 1120], for which, at MASP-2 (CCP1-CCP2-SP), the “MASP-2 vs. thrombin selectivity” value is “** (5.0 to 25-fold)” and the Ki is < 500 nM. For the same molecule, at human α-thrombin, the Ki was < 500 nM.
Regarding `C[C@H](NC(=O)[C@@H](CCc1ccccc1)NC1CCCC1)C(=O)NCc1ccc(C(=N)N)cc1` [compound 1122], the “MASP-2 vs. thrombin selectivity” value on MASP-2 (CCP1-CCP2-SP) is “−− (less than 1.0-fold)”. Moreover, the Ki at MASP-2 (CCP1-CCP2-SP) and on human α-thrombin was < 500 nM throughout.
On to `N=C(N)c1ccc(CNC(=O)[C@@H]2CCN2C(=O)[C@@H](CCc2ccccc2)NCC(=O)O)cc1` [compound 1124], for which, at MASP-2 (CCP1-CCP2-SP), the “MASP-2 vs. thrombin selectivity” value was “−− (less than 1.0-fold)” and the Ki is < 500 nM. For the same molecule, at human α-thrombin, the Ki was < 500 nM.
Turning to `C[C@H](NC(=O)[C@@H](CCc1ccccc1)NCC(C)(C)C)C(=O)NCc1ccc(C(=N)N)cc1` [compound 1126], the “MASP-2 vs. thrombin selectivity” value at MASP-2 (CCP1-CCP2-SP) is on record as “−− (less than 1.0-fold)”. In addition, the Ki on MASP-2 (CCP1-CCP2-SP) and at human α-thrombin was < 500 nM throughout.
For `C[C@H](NC(=O)[C@@H](CCc1ccccc1)NC1CCCCC1)C(=O)NCc1ccc(C(=N)N)cc1` [compound 1130, (R)—N—((S)-1-((4-Carbamimidoylbenzyl)amino)-1-oxopropan-2-yl)-2-(cyclohexylamino)-4-phenylbutanamide Dihydrochloride], on MASP-2 (CCP1-CCP2-SP), the “MASP-2 vs. thrombin selectivity” value is on record as “−− (less than 1.0-fold)” and the Ki is < 500 nM. For the same molecule, the Ki at human α-thrombin is < 500 nM.
`C[C@H](NC(=O)[C@@H](CCc1ccccc1)NCc1ccc(O)cc1)C(=O)NCc1ccc(C(=N)N)cc1` [compound 1140, (R)—N—((S)-1-((4-Carbamimidoylbenzyl)amino)-1-oxopropan-2-yl)-2-((4-hydroxybenzyl)amino)-4-phenylbutanamide Dihydrochloride]: on MASP-2 (CCP1-CCP2-SP), the “MASP-2 vs. thrombin selectivity” value is “−− (less than 1.0-fold)” and the Ki is < 500 nM. At human α-thrombin, the inhibitory constant (Ki) was < 500 nM.
With `COC(=O)COc1ccc(CN[C@H](CCc2ccccc2)C(=O)N[C@@H](C)C(=O)NCc2ccc(C(=N)N)cc2)cc1` [compound 1151], the “MASP-2 vs. thrombin selectivity” value at MASP-2 (CCP1-CCP2-SP) is listed as “−− (less than 1.0-fold)”. Also, the Ki at MASP-2 (CCP1-CCP2-SP) and on human α-thrombin was < 500 nM throughout.
Take `C[C@H](NC(=O)[C@@H](CCc1ccccc1)NCc1ccc(N2CCN(C)CC2)cc1)C(=O)NCc1ccc(C(=N)N)cc1` [compound 1152]: on MASP-2 (CCP1-CCP2-SP), the “MASP-2 vs. thrombin selectivity” value is “* (1.0 to 5.0-fold)” and the Ki is < 500 nM. Moreover, the Ki on human α-thrombin was < 500 nM.
Turning to `N=C(N)c1ccc(CNC(=O)Cn2c(=O)n(Cc3ccccc3)c(=O)c3ccc(C(=O)NC4CCCCC4)cc32)cc1` [compound 2021, 3-Benzyl-1-(2-((4-carbamimidoylbenzyl)amino)-2-oxoethyl)-N-cyclohexyl-2,4-dioxo-1,2,3,4-tetrahydroquinazoline-7-carboxamide], the Ki at human α-thrombin (Zn/EDTA condition not given) is > 25000 nM.
